Drawing on US20170280720A1, “ARGININE […] INHIBITORS AND USES THEREOF” (EPIZYME, INC., priority 2014, published 2017), this text covers IC50 for 59 molecules.

SMILES strings stand for the structures.

In one experiment the target is PRMT5 (Homo sapiens, UniProt O14744). As to the kind of experiment: PRMT5 IC50 (Table 2; no method described). The settings on record: read-out: PRMT5_ IC50. It counts as biochemical.
Experiment [1] has as its system asymmetric di-methyl PABP1 in RKO cells. As to the kind of experiment: In Cell Western (ICW) for asymmetric di-methyl PABP1 and DNA content in RKO cells. It is filed as cell-based. Conditions: Homo sapiens, RKO, In Cell Western. A digest of the protocol:
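RKO cells treated with compound for 48 h at 37 °C, then fixed, methanol-permeabilized and stained for asymmetric di-methyl PABP1 (800 nm) with DRAQ5 DNA stain (700 nm). Signal ratio normalized to DMSO and 20 μM reference-compound controls. IC50 from nine 3-fold dilutions in triplicate.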

Chain of PRMT5 (O14744 whole entry, species assumed): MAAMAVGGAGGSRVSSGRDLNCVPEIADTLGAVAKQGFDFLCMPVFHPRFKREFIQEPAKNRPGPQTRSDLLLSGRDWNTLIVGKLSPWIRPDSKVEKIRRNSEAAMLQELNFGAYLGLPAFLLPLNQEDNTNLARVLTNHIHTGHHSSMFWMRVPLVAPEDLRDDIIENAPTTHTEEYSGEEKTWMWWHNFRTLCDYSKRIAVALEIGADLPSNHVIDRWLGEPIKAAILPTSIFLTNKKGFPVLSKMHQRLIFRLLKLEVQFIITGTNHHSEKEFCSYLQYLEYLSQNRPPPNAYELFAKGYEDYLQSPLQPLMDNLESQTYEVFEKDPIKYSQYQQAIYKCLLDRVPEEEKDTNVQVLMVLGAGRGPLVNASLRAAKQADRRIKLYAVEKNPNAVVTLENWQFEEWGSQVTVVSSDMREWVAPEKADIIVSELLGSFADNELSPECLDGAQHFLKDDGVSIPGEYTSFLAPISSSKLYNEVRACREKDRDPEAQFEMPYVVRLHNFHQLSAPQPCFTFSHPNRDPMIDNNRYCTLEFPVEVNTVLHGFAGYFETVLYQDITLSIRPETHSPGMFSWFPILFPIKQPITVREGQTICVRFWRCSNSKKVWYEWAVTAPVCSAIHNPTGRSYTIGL
Chain of PRMT5 (Q9BQA1 whole entry partner, species assumed): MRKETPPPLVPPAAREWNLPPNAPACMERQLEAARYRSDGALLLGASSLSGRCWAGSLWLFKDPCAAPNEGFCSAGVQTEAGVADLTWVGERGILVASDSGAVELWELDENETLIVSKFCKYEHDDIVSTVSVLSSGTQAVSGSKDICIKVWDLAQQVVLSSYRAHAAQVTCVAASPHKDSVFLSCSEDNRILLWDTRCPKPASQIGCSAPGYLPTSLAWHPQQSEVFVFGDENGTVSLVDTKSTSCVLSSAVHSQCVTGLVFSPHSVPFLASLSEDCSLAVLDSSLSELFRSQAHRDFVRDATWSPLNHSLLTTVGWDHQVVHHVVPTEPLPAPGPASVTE

As usually defined, the IC50 is the concentration at which inhibition is half-maximal. As to `CN(CCN)Cc1ccc(-c2ccc3ncn(-c4ccccc4)c3c2)cc1` [Compound 19], at PRMT5, the IC50 came out at 34.7 µM.
The molecule `CN(CCN)Cc1cccc(-c2cc(C(=O)NC3CCOCC3)c3cnn(C)c3n2)c1` [Compound 158] came in with a half-maximal inhibitory concentration (IC50) in experiment [1] of 13.5 µM.
On to `CNCCN(C)Cc1cccc(-c2cc(C(=O)NCC3CCOCC3)c3cnn(C4CCC4)c3n2)c1` [Compound 21], for which the concentration for half-maximal inhibition (IC50) in experiment [1] came to 7.37 µM.
In experiment [1], `CC(C)n1ncc2c(N3CCOCC3)cc(-c3cccc(CN(C)CCNC4CC4)c3)nc21` [Compound 163] displayed an IC50 of 11.6 µM.
In the case of `CNCCN(C)Cc1cccc(-c2cc(C(=O)N(C)Cc3ccccc3)c3cnn(C(C)C)c3n2)c1` [Compound 24], the IC50 at PRMT5 is 0.849 µM.
Take `CC(C)n1ncc2c(C(=O)NC3CCOCC3)cc(-c3cccc(CN(C)CCN)c3)nc21` [Compound 148]: half-maximal inhibition in experiment [1] (IC50) required 0.972 µM.
For the molecule `CNCCN(C)Cc1cccc(-c2cc(NS(=O)(=O)N(C)C)c3cnn(C(C)C)c3n2)c1` [Compound 139], inhibition in experiment [1] was half-maximal at 4.86 µM (IC50).
For the molecule `CC(C)n1ncc2c(C(=O)N3CCCCC3)cc(-c3cccc(CN(C)CCN)c3)nc21` [Compound 43], the half-maximal inhibitory concentration (IC50) in experiment [1] is 20 µM.
In experiment [1], `CNCCN(C)Cc1cccc(-c2cc(Oc3ccccc3)c3cnn(C(C)C)c3n2)c1` [Compound 45] showed a half-inhibitory concentration (IC50) of 20 µM.
On the same count and under the same terms, the value for `CNCCN(C)Cc1cccc(-c2cnc3c(c2)c(Br)nn3CC2CCOCC2)c1` [Compound 39] was 20 µM; that for `CNCCN(C)Cc1cccc(-c2nc(NC3CCOCC3)c3cnn(C(C)(C)C)c3n2)c1` [Compound 27, N1-(3-(1-tert-butyl-4-(tetrahydro-2H-pyran-4-ylamino)-1H-pyrazolo[3,4-d]pyrimidin-6-yl)benzyl)-N1,N2-dimethylethane-1,2-diamine] was 0.387 µM.
In experiment [1], `CNCCN(C)Cc1cccc(-c2cc(Nc3ncc(C)s3)c3cnn(C(C)C)c3n2)c1` [Compound 20] showed an IC50 of 3.33 µM.
`CCC(=O)c1cc(-c2cccc(CN(C)CCNC)c2)nc2c1cnn2C(C)C` [Compound 128] showed a 50% inhibitory concentration (IC50) in experiment [1] of 20 µM.
Consider `COc1cccc(CNC(=O)c2cncc(-c3ccc(CNCCN)cc3)c2)c1` [Compound 356], for which, on PRMT5, the 50% inhibitory concentration (IC50) worked out at 0.377 µM.
`Cc1cc2cc(-c3ccc(CNCCN)cc3)ccc2[nH]1` [Compound 141]: the IC50 on PRMT5 is 0.327 µM.
With `COc1ccc(Cn2cnc3ccc(-c4ccc(CN(C)CCN)cc4)cc32)cc1` [Compound 16], at PRMT5, the IC50 worked out at 5.69 µM.
Take `CNCCN(C)Cc1cccc(-c2cc(C(=O)NCC3CCOCC3)c3cnn(C4CC4)c3n2)c1` [Compound 26]: the concentration for half-maximal inhibition (IC50) in experiment [1] came to 2.15 µM.
Same read-out and setting: the value for `CNCCN(C)Cc1cccc(-c2cc(NS(C)(=O)=O)c3cnn(C(C)C)c3n2)c1` [Compound 169] was 13.3 µM.
As for `CNCCN(C)Cc1cccc(-c2cc(N)c3cnn(C(C)C)c3n2)c1` [Compound 151], the midpoint of inhibition in experiment [1], the IC50, lay at 20 µM.
As for `CNCCN(C)Cc1cccc(-c2ccc3c(c2)ncn3C(C)C)c1` [Compound 36], the IC50 on PRMT5 was found to be 50 µM.
In experiment [1], `CNCCN(C)Cc1cccc(-c2cc(C(=O)NC3CCOCC3)c3cnn(C4CCC4)c3n2)c1` [Compound 29] came in with a half-maximal inhibitory concentration (IC50) of 5.21 µM.
With `CS(=O)(=O)N1CCC(Cn2cnc3ccc(-c4ccc(CNCCN)cc4)cc32)CC1` [Compound 129], the half-inhibitory concentration (IC50) at PRMT5 was determined as 0.122 µM.
On the same count and under the same terms, in the case of `CC(C)n1ncc2c(C(=O)N[C@@H](C)c3ccccc3)cc(-c3cccc(CNCCN)c3)nc21` [Compound 160] it was 35.9 µM.
Molecule `CNCCN(C)Cc1cccc(-c2cc(NC3CC3)c3cnn(C(C)C)c3n2)c1` [Compound 11] displayed an IC50 in experiment [1] of 3.44 µM.
Take `CNCCN(C)Cc1cccc(-c2cc(NC(=O)NC3CCOCC3)c3cnn(C(C)C)c3n2)c1` [Compound 133]: in experiment [1], it took 11.5 µM to reach half-maximal inhibition (IC50).
On to `CCS(=O)(=O)Nc1cc(-c2cccc(CN(C)CCNC)c2)nc2c1cnn2C(C)C` [Compound 161], for which the concentration for half-maximal inhibition (IC50) in experiment [1] is 11.3 µM.
Turning to `Cc1c(C(=O)NCc2ccccc2)cc(-c2cccc(CN(C)CCN)c2)c2cn[nH]c12` [Compound 15], the IC50 on PRMT5 was determined as 10.8 µM.
For the molecule `NCCNCc1ccc(-c2ccc3ncn(C4CCNCC4)c3c2)cc1` [Compound 157], the half-inhibitory concentration (IC50) at PRMT5 was determined as 0.418 µM.
`CNC(=O)Nc1cc(-c2cccc(CN(C)CCN)c2)nc2c1cnn2C(C)C` [Compound 126] gave an IC50 in experiment [1] of 10.8 µM.
Molecule `CN(CCN)Cc1cccc(-c2nc(NC3CCOCC3)c3cnn(C(C)(C)C)c3n2)c1` [Compound 18] displayed a half-maximal inhibitory concentration (IC50) in experiment [1] of 0.442 µM.
`CC(C)n1ncc2c(C(=O)NCC3CCOCC3)cc(-c3cccc(CN(C)CCNC4CC4)c3)nc21` [Compound 167] yielded an IC50 in experiment [1] of 5.14 µM.
`CNCCN(C)Cc1cccc(-c2cnc3c(c2)OCC(=O)N3)c1` [Compound 355]: the IC50 in experiment [1] came out at 12.8 µM.
Molecule `CNCCN(C)Cc1cccc(-c2nc(NCc3cc(C)nn3C)c3cnn(C4CC4)c3n2)c1` [Compound 17] displayed an IC50 in experiment [1] of 20 µM.
The same measure, in the same setting: in the case of `CN(CCN)Cc1cccc(-c2cc(C(=O)NC3CCOCC3)c3cnn(CC(F)(F)F)c3n2)c1` [Compound 144] it was 8.46 µM.
Turning to `N#Cc1cccc(Cn2cnc3ccc(-c4ccc(CNCCN)cc4)cc32)c1` [Compound 145], the half-maximal inhibitory concentration (IC50) on PRMT5 came out at 0.0799 µM.
On to `CN(CCN)Cc1cccc(-c2cc(C(=O)NC3CCOCC3)c3cnn(C4CC4)c3n2)c1` [Compound 142], for which 2.77 µM corresponded to half-maximal inhibition in experiment [1] (IC50).
Turning to `CC(C)n1ncc2c(C(=O)N[C@@H](C)c3ccccc3)cc(-c3cccc(CN(C)CCN)c3)nc21` [Compound 136], the half-maximal inhibitory concentration (IC50) on PRMT5 came out at 50 µM.
For `CNCCN(C)Cc1cc(-c2cc(C(=O)NC3CCOCC3)c3cnn(C(C)C)c3n2)ccc1F` [Compound 130], in experiment [1], it took 11.5 µM to reach half-maximal inhibition (IC50).
In turn, `CNCCN(C)Cc1cccc(-c2cc(C(=O)NCc3cnn(C)c3C)c3cnn(C(C)C)c3n2)c1` [Compound 137] gave an IC50 in experiment [1] of 9.62 µM.
The same measure, in the same setting: in the case of `CNCCN(C)Cc1cccc(-c2cc(NC(=O)NC)c3cnn(C(C)C)c3n2)c1` [Compound 138] it was 7.74 µM.
With `CNCCN(C)Cc1cccc(-c2ccc3cn(Cc4ccccc4)nc3n2)c1` [Compound 35], in experiment [1], half-maximal inhibition (IC50) required 3.05 µM.
In experiment [1], `CC(C)n1ncc2c(C(=O)N3CCCCC3)cc(-c3cccc(CNCCN)c3)nc21` [Compound 153] showed an IC50 of 20 µM.
In the case of `NCCNCc1ccc(-c2cnc3c(c2)CCC(=O)N3)cc1` [Compound 156], at PRMT5, the IC50 was 0.338 µM.
The molecule `CC(C)n1ncc2c(C(=O)NCc3ccccc3F)cc(-c3cccc(CNCCN)c3)nc21` [Compound 159] displayed an IC50 in experiment [1] of 20 µM.
For the molecule `CC(C)n1ncc2c(C(=O)NCC3CCN(C)CC3)cc(-c3cccc(CN(C)CCN(C)C)c3)nc21` [Compound 162], the 50% inhibitory concentration (IC50) on PRMT5 stood at 50 µM.
Take `CC(C)n1ncc2c(C(=O)NCc3ccccc3)cc(-c3cccc(CN(C)CCN)c3)cc21` [Compound 14]: half-maximal inhibition in experiment [1] (IC50) was put at 20 µM.
Take `CC(C)n1ncc2c(C(=O)N(C)Cc3ccccc3)cc(-c3cccc(CN(C)CCN)c3)nc21` [Compound 31]: the IC50 on PRMT5 amounted to 0.858 µM.
Molecule `CNCCN(C)Cc1cccc(-c2cc(C(=O)NCc3ccccc3F)c3cnn(C(C)C)c3n2)c1` [Compound 38] gave an IC50 in experiment [1] of 4.12 µM.
With `CC(C)n1ncc2c(C(=O)NCc3ccncc3)cc(-c3cccc(CNCCN)c3)nc21` [Compound 150], on PRMT5, the IC50 is 23.9 µM.
Same read-out and setting: in the case of `CNCCN(C)Cc1cccc(-c2cc(C(=O)N[C@@H](C)c3ccccc3)c3cnn(C(C)C)c3n2)c1` [Compound 44] it was 50 µM; in that of `Cc1cccc(CCn2cnc3ccc(-c4ccc(CNCCN)cc4)cc32)c1` [Compound 143], 0.281 µM; in that of `COc1cccc(Cc2nc3ccc(-c4ccc(CNCCN)cc4)cc3n2C(C)C)c1` [Compound 135], 0.169 µM.
With `Cc1ccc(-n2cnc3cc(-c4ccc(CNCCN)cc4)ccc32)cc1` [Compound 131], the IC50 on PRMT5 was found to be 0.371 µM.
In experiment [1], `Cc1nn(C(C)C)c2nc(-c3cccc(CN(C)CCN)c3)cc(N3CCOCC3)c12` [Compound 22, N1-(3-(1-isopropyl-3-methyl-4-morpholino-1H-pyrazolo[3,4-b]pyridin-6-yl)benzyl)-N1-methylethane-1,2-diamine] registered a 50% inhibitory concentration (IC50) of 3.11 µM.
As for `CC(C)n1ncc2c(C(=O)N3CCc4ccccc4C3)cc(-c3cccc(CN(C)CCN)c3)nc21` [Compound 23], at PRMT5, the IC50 came to 11.6 µM.
For `CC(C)n1ncc2c(NC3CC3)cc(-c3cccc(CN(C)CCN)c3)nc21` [Compound 41], the 50% inhibitory concentration (IC50) in experiment [1] turned out to be 5.94 µM.
With `CNCCN(C)Cc1cccc(-c2cc(NS(=O)(=O)C(F)(F)F)c3cnn(C(C)C)c3n2)c1` [Compound 164], the IC50 in experiment [1] was found to be 11.9 µM.
Take `CC(C)n1cnc2ccc(-c3ccc(CNCCN)cc3)cc21` [Compound 166]: the IC50 at PRMT5 amounted to 0.404 µM.
As to `COc1ccc(Cn2cnc3ccc(-c4ccc(CNCCN)cc4)cc32)cc1` [Compound 132], the 50% inhibitory concentration (IC50) at PRMT5 was 0.0572 µM.
